The values below come from patent publication US20240148821A1, “PHARMACEUTICAL USE OF CYCLIC PEPTIDE COMPOUND” (CHUGAI SEIYAKU KABUSHIKI KAISHA, priority 2021, published 2024).

Assay [1] deals with protein-protein interaction between Kras and SOS1 (biotin-tagged human Kras loaded with GDP, His-tagged human SOS1) (Homo sapiens (Human), UniProt P01116, G12D). Put plainly: Protein-protein interaction inhibition between Kras and SOS1 (KrasG12D-SOS PPI) using AlphaScreen.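 Note: kras produced in E. coli, Ni-coupled donor beads and streptavidin acceptor beads, excitation 680 nm with emission detected at 520–620 nm via singlet oxygen transfer.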 It is filed as biochemical. The note with it: AlphaScreen; biotin-tagged human Kras loaded with GDP, His-tagged human SOS1; read-out: KRAS G12D-SOS PPI IC50. Background: Alpha assays give light when donor and acceptor beads are brought close together.

Assay [2] concerns Human pancreatic cancer cell line AsPC-1 (G12D mutation Kras). Put plainly: AsPC-1 cell growth inhibition (AsPC-1 CGI). It is filed as cell-based. The settings on record: read-out: AsPC-1 cell growth inhibition, 50% growth inhibitory concentration (IC50 value); 96 hours, CellTiter-Glo, values classified in ranges.

Numbered stars: 1 amine (or outer) side, 2 acyl side, 3 side chain; on linkers, the order of the positions; unused ones are H or OH. Bridge positions count the residues as written; N and C are the ends. Square brackets hold non-standard residues; d marks the D form. Peptide text beside a SMILES is read from it. * marks the point of attachment. hPhe(3-Cl-4-CF3) = N[C@@H](CCc1ccc(C(F)(F)F)c(Cl)c1)C(=O)O; hPhe(3-F,4-CF3) = N[C@@H](CCc1ccc(C(F)(F)F)c(F)c1)C(=O)O; NEtPhe(4-CF3) = CCN[C@@H](Cc1ccc(C(F)(F)F)cc1)C(=O)O; X16 = CS(=O)(=O)c1ccc(CC[C@H](N[*:1])C(=O)[*:2])cc1; X25 = COc1ccc(C[C@@H](C(=O)[*:2])N(C)[*:1])cn1; NEtPhe(4-Me) = CCN[C@@H](Cc1ccc(C)cc1)C(=O)O; NMePhe(4-Me) = CN[C@@H](Cc1ccc(C)cc1)C(=O)O; NMedβ3hAla = C[C@H](CC(=O)[*:2])N(C)[*:1]; NMeGly(cPent) = CN[C@H](C(=O)O)C1CCCC1; NMeCha = CN[C@@H](CC1CCCCC1)C(=O)O; NMeAhp(2) = CCCCC[C@H](NC)C(=O)O; NMeChg = CN[C@H](C(=O)O)C1CCCCC1; NMeI = CC[C@H](C)[C@H](NC)C(=O)O; NMeD = CN[C@@H](CC(=O)O)C(=O)O; NMeL = CN[C@@H](CC(C)C)C(=O)O; NMeV = CN[C@H](C(=O)O)C(C)C; Trifluoroethyl = FC(F)(F)C*; d(β3hA) = C[C@@H](N)CC(=O)O; NMeC = CN[C@@H](CS)C(=O)O; NMeS = CN[C@@H](CO)C(=O)O; Morpholide = C1CN(*)CCO1; NMeA = CN[C@@H](C)C(=O)O; NMeAib = CNC(C)(C)C(=O)O; Piperidide = C1CCN(*)CC1; Pyrrolidide = C1CCN(*)C1; dNMeA = CN[C@H](C)C(=O)O; Ac5c = NC1(C(=O)O)CCCC1; Aze = O=C(O)[C@@H]1CCN1; Cyclobutyl = C1CC(*)C1; Cyclopropyl = C1CC1*; Sar = CNCC(=O)O

As for `CC[C@H](C)[C@@H]1NC(=O)[C@H](CC(C)C)N(C)C(=O)C[C@@H](C(=O)N(C)C)N(C)C(=O)[C@H]([C@@H](C)CC)N(C)C(=O)C2(CCCC2)NC(=O)[C@@H]2CCCN2C(=O)[C@H](CCc2ccc(C(F)(F)F)c(Cl)c2)NC(=O)CN(C)C(=O)[C@H](Cc2ccc(C)cc2)N(C)C(=O)[C@@H]2CCN2C(=O)[C@H](C)NC1=O` [Compound 840] ([NMeL]IA[Aze][NMePhe(4-Me)][Sar][hPhe(3-Cl-4-CF3)]P[Ac5c][NMeI][NMeD]-NMe2; lactam N-11), the results for the IC50 in assay [1] and in assay [2] were 1.2 nM and no more than 20 nM, respectively.

On to `CC[C@H](C)[C@@H]1NC(=O)[C@H](CC(C)C)N(C)C(=O)C[C@@H](C(=O)N(C)C)N(C)C(=O)[C@H](C2CCCC2)N(C)C(=O)C2(CCCC2)NC(=O)[C@@H]2CCCN2C(=O)[C@H](CCc2ccc(C(F)(F)F)c(F)c2)NC(=O)CN(C)C(=O)[C@H](C2CCCC2)N(C)C(=O)[C@@H]2CCN2C(=O)[C@H](C)N(C)C1=O` [Compound 134] ([NMeL]I[NMeA][Aze][NMeGly(cPent)][Sar][hPhe(3-F,4-CF3)]P[Ac5c][NMeGly(cPent)][NMeD]-NMe2; lactam N-11), for which the IC50 in assay [1] was 0.61 nM; in assay [2], no more than 20 nM.

In the case of `CC[C@H](C)[C@@H]1NC(=O)[C@H](CC(C)C)N(C)C(=O)C[C@@H](C(=O)N2CCCCC2)N(C)C(=O)[C@H](C2CCCCC2)N(C)C(=O)C2(CCCC2)NC(=O)[C@H](Cc2ccc(OC)nc2)N(C)C(=O)[C@H](CCc2ccc(C(F)(F)F)c(Cl)c2)NC(=O)CN(C)C(=O)[C@H](CC2CCCCC2)N(C)C(=O)CN(C)C(=O)CN(C)C1=O` [Compound 592] ([NMeL]I[Sar][Sar][NMeCha][Sar][hPhe(3-Cl-4-CF3)][X25][Ac5c][NMeChg][NMeD]-Piperidide; lactam N-11), the IC50 in assay [1] was 26 nM; in assay [2], greater than 500 nM.

For the compound `CC[C@H](C)[C@@H]1NC(=O)[C@H](CC(C)C)N(C)C(=O)C[C@@H](C(=O)N2CCCC2)N(C)C(=O)[C@H]([C@@H](C)CC)N(C)C(=O)C2(CCCC2)NC(=O)[C@@H]2CCCN2C(=O)[C@H](CCc2ccc(C(F)(F)F)c(Cl)c2)NC(=O)CN(C)C(=O)[C@H](Cc2ccc(C(F)(F)F)cc2)N(CC)C(=O)[C@@H]2CCN2C(=O)[C@H](C)N(C)C1=O` [Compound 1319] ([NMeL]I[NMeA][Aze][NEtPhe(4-CF3)][Sar][hPhe(3-Cl-4-CF3)]P[Ac5c][NMeI][NMeD]-Pyrrolidide; lactam N-11), the IC50 in assay [1] is 0.82 nM; in assay [2], no more than 20 nM.

As for `CC[C@H](C)[C@@H]1NC(=O)[C@H](CC(C)C)N(C)C(=O)C[C@@H](C(=O)N2CCCCC2)N(C)C(=O)[C@H](COC2CC2)N(C)C(=O)C2(CCCC2)NC(=O)[C@@H]2CCCN2C(=O)[C@H](CCc2ccc(C(F)(F)F)c(Cl)c2)NC(=O)CN(C)C(=O)[C@H](CC2CCCCC2)N(C)C(=O)[C@@H]2CCN2C(=O)[C@H](C)N(C)C1=O` [Compound 1690] ([NMeL]I[NMeA][Aze][NMeCha][Sar][hPhe(3-Cl-4-CF3)]P[Ac5c][NMeS](Cyclopropyl)[NMeD]-Piperidide; lactam N-11), the figures for the IC50 in assay [1] and in assay [2] were 97 nM and greater than 500 nM, respectively.

Turning to `CC[C@H](C)[C@@H]1NC(=O)[C@H](CC(C)C)N(C)C(=O)C[C@@H](C)N(C)C(=O)[C@H](C(C)C)NC(=O)C(C)(C)N(C)C(=O)[C@H](CC(C)C)NC(=O)[C@H](CCc2ccc(C(F)(F)F)c(F)c2)NC(=O)CN(C)C(=O)[C@H](CC2CCCCC2)N(C)C(=O)CN(C)C(=O)CN(C)C1=O` [Compound 967] (cyclo(I[Sar][Sar][NMeCha][Sar][hPhe(3-F,4-CF3)]L[NMeAib]V[NMedβ3hAla][NMeL])), the IC50 is 58 nM in assay [1] and greater than 500 nM in assay [2].

Turning to `CC[C@H](C)[C@@H]1NC(=O)[C@H](C)N(C)C(=O)C[C@@H](C)NC(=O)[C@H](C2CCCC2)N(C)C(=O)C2(CCCC2)NC(=O)[C@@H]2CCCN2C(=O)[C@H](CCc2ccc(C(F)(F)F)c(Cl)c2)NC(=O)CN(C)C(=O)[C@H](CC2CCCCC2)N(C)C(=O)[C@@H]2CCN2C(=O)[C@H](C)N(C)C1=O` [Compound 1491] (cyclo([Ac5c][NMeGly(cPent)][d(β3hA)][NMeA]I[NMeA][Aze][NMeCha][Sar][hPhe(3-Cl-4-CF3)]P)), the results for the IC50 in assay [1] and in assay [2] were 3.7 nM and greater than 500 nM, respectively.

As to `CCCCC[C@H]1C(=O)N[C@@H]([C@@H](C)CC)C(=O)N[C@@H](C)C(=O)N2CC[C@H]2C(=O)N(C)[C@@H](CC2CCCCC2)C(=O)N(C)CC(=O)N[C@@H](CCc2ccc(C(F)(F)F)c(F)c2)C(=O)N2CCC[C@H]2C(=O)NC2(CCCC2)C(=O)N(C)[C@@H](C2CCCC2)C(=O)N(C)[C@H](C(=O)N(C)C)CC(=O)N1C` [Compound 1117] ([NMeAhp(2)]IA[Aze][NMeCha][Sar][hPhe(3-F,4-CF3)]P[Ac5c][NMeGly(cPent)][NMeD]-NMe2; lactam N-11), the IC50 is 2.2 nM in assay [1] and no more than 20 nM in assay [2].

As to `CC[C@H](C)[C@@H]1NC(=O)[C@H](CC(C)C)N(C)C(=O)CSC[C@@H](C(=O)N(C)C)N(C)C(=O)[C@H](C2CCCC2)N(C)C(=O)C2(CCCC2)NC(=O)[C@@H]2CCCN2C(=O)[C@H](CCc2ccc(C(F)(F)F)c(F)c2)NC(=O)CN(C)C(=O)[C@H](C2CCCC2)N(C)C(=O)[C@@H]2CCN2C(=O)[C@H](C)N(C)C1=O` [Compound 2179] ({CH2CO}-[NMeL]I[NMeA][Aze][NMeGly(cPent)][Sar][hPhe(3-F,4-CF3)]P[Ac5c][NMeGly(cPent)][NMeC]-NMe2; thioether N-11), the IC50 in assay [1] is 540 nM; in assay [2], greater than 500 nM.

Regarding `CC[C@H](C)[C@@H]1NC(=O)[C@H](CC(C)C)N(C)C(=O)C[C@@H](C(=O)N2CCCCC2)N(C)C(=O)[C@H](C(C)C)N(C)C(=O)C2(CCCC2)NC(=O)[C@@H]2CCCN2C(=O)[C@H](CCc2ccc(C(F)(F)F)c(Cl)c2)NC(=O)CN(C)C(=O)[C@H](COCC(F)(F)F)N(C)C(=O)[C@@H]2CCN2C(=O)[C@H](C)N(C)C1=O` [Compound 254] ([NMeL]I[NMeA][Aze][NMeS](Trifluoroethyl)[Sar][hPhe(3-Cl-4-CF3)]P[Ac5c][NMeV][NMeD]-Piperidide; lactam N-11), the IC50 is 15 nM in assay [1] and greater than 500 nM in assay [2].

For the compound `CC[C@H](C)[C@@H]1NC(=O)[C@H](CC(C)C)N(C)C(=O)C[C@@H](C(=O)N2CCCCC2)N(C)C(=O)[C@H](C2CCCCC2)N(C)C(=O)C2(CCCC2)NC(=O)[C@@H]2CCCN2C(=O)[C@H](CCc2ccc(S(C)(=O)=O)cc2)NC(=O)CN(C)C(=O)[C@H](CC2CCCCC2)N(C)C(=O)CN(C)C(=O)CN(C)C1=O` [Compound 2058, (3S,9S,18S,21S,25S,28S,34S)-28-cyclohexyl-9-(cyclohexylmethyl)-21-isobutyl-7,10,13,16,22,26,29-heptamethyl-18-[(1S)-1-methylpropyl]-3-[2-(4-methylsulfonylphenyl)ethyl]-25-(piperidine-1-carbonyl)spiro[1,4,7,10,13,16,19,22,26,29,32-undecazabicyclo[32.3.0]heptatriacontane-31,1′-cyclopentane]-2,5,8,11,14,17,20,23,27,30,33-undecone] ([NMeL]I[Sar][Sar][NMeCha][Sar][X16]P[Ac5c][NMeChg][NMeD]-Piperidide; lactam N-11), the IC50 in assay [1] was 380 nM; in assay [2], greater than 500 nM.

Turning to `CC(C)C[C@H]1C(=O)N[C@@H](COC2CCC2)C(=O)N(C)[C@@H](C)C(=O)N2CC[C@H]2C(=O)N(C)[C@@H](CC2CCCCC2)C(=O)N(C)CC(=O)N[C@@H](CCc2ccc(C(F)(F)F)c(Cl)c2)C(=O)N2CCC[C@H]2C(=O)NC2(CCCC2)C(=O)N(C)[C@@H](C(C)C)C(=O)N(C)[C@H](C(=O)N2CCCCC2)CC(=O)N1C` [Compound 45] ([NMeL]S(Cyclobutyl)[NMeA][Aze][NMeCha][Sar][hPhe(3-Cl-4-CF3)]P[Ac5c][NMeV][NMeD]-Piperidide; lactam N-11), the IC50 is 84 nM in assay [1] and greater than 500 nM in assay [2].

Consider `CC[C@H](C)[C@@H]1NC(=O)[C@H](C)N(C)C(=O)C[C@@H](C(=O)N2CCOCC2)N(C)C(=O)[C@H](C(C)C)N(C)C(=O)C2(CCCC2)NC(=O)[C@@H]2CCCN2C(=O)[C@H](CCc2ccc(C(F)(F)F)c(Cl)c2)NC(=O)[C@@H](C)N(C)C(=O)[C@H](CC2CCCCC2)N(C)C(=O)[C@@H]2CCN2C(=O)[C@H](C)N(C)C1=O` [Compound 1664] ([NMeA]I[NMeA][Aze][NMeCha][dNMeA][hPhe(3-Cl-4-CF3)]P[Ac5c][NMeV][NMeD]-Morpholide; lactam N-11), for which the IC50 in assay [1] is 8.8 nM; in assay [2], greater than 500 nM.

As to `CC[C@H](C)[C@@H]1NC(=O)[C@H](C)N(C)C(=O)C[C@@H](C(=O)N2CCCCC2)N(C)C(=O)[C@H](C(C)C)N(C)C(=O)C2(CCCC2)NC(=O)[C@@H]2CCCN2C(=O)[C@H](CCc2ccc(C(F)(F)F)c(Cl)c2)NC(=O)[C@@H](C)N(C)C(=O)[C@H](CC2CCCCC2)N(C)C(=O)[C@@H]2CCCN2C(=O)CN(C)C1=O` [Compound 307] ([NMeA]I[Sar]P[NMeCha][dNMeA][hPhe(3-Cl-4-CF3)]P[Ac5c][NMeV][NMeD]-Piperidide; lactam N-11), the IC50 was 4.4 nM in assay [1] and greater than 500 nM in assay [2].

`CC[C@H](C)[C@@H]1NC(=O)[C@H](CC(C)C)N(C)C(=O)C[C@@H](C(=O)N(C)C)N(C)C(=O)[C@H]([C@@H](C)CC)N(C)C(=O)C2(CCCC2)NC(=O)[C@@H]2CCCN2C(=O)[C@H](CCc2ccc(C(F)(F)F)c(Cl)c2)NC(=O)CN(C)C(=O)[C@H](Cc2ccc(C)cc2)N(CC)C(=O)[C@@H]2CCN2C(=O)[C@H](C)N(C)C1=O` [Compound 866] ([NMeL]I[NMeA][Aze][NEtPhe(4-Me)][Sar][hPhe(3-Cl-4-CF3)]P[Ac5c][NMeI][NMeD]-NMe2; lactam N-11): the IC50 in assay [1] was 1.2 nM; in assay [2] it was no more than 20 nM.
